Tests used:
[1] = test system: mitochondrial respiration and glycolysis in LN-229 human glioblastoma cells; experiment: Metabolic parameters, Extracellular Flux Analyzer (OCR/ECAR); format: cell-based; conditions: 25 μM, LN229
Experimental: Metabolic responses of LN-229 human glioblastoma cells were evaluated with Extracellular Flux Analyzer XF24 (Seahorse Biosciences, North Billerica, Mass.). Prior each assay the cells were plated at 4×10^4 cells/well in 24-well plates in growth supporting media. At the time of measurement, growth media were replaced with serum-free XF medium (Seahorse) in cartridges equipped with oxygen-sensitive and pH-sensitive fluorescent probes. The oxygen consumption rate (OCR; indicative of mitochondrial respiration) and acidification rate (ECAR; indicative of glycolysis) were evaluated after injecting the following metabolic toxins: oligomycin, FCCP; rotenone; and antimycin A. Immediate metabolic effects were determined by comparing OCR and ECAR values in cells pre-incubated with DMSO (vehicle), or with PP1 and FF, all used at 25 μM. A: Representative experiment in which real OCR (pmol/min) and ECAR (mpH/min) values are shown. Other relevant metabolic parameters calculated from this experiment include ATP production, Spare Respiratory Capacity, basal OCR levels and proton leak. B: Average OCR and ECAR data (% change over basal OCR and ECAR values) from three independent experiments repeated 5 times (n=15).
Evaluation of metabolic parameters—Metabolic responses of human glioblastoma cells were evaluated with Extracellular Flux Analyzer XFe24 (Agilent Technologies). […]

[2] = test system: intracranial GL-261 glioblastoma tumors; experiment: Intracranial GL-261-luc glioblastoma model, pathological evaluation of tumors; format: in vivo, C57BL/6 mice; conditions: 50 mg/kg/day oral, 14 days, large pre-existing tumors, n=3
Experimental: Panel A: PP1 accumulation in different tissues following oral administration of PP1 (25 mg/kg). C57BL/6 mice were treated daily for 14 days, and the levels of PP1 in the blood, liver, spleen, kidney, heart, brain and in brain tumors, were evaluated by HPLC, as previously described. Data represent average values with standard deviation (n=3). Panel B: Body weight of C57BL/6 mice treated with PP1. Mice were treated with the PP1 at doses ranging from 25 to 75 mg/kg/day administered by oral gavage. Following 7 and 14 days of daily drug administration both control (DMSO-treated) and experimental (PP1-treated) mice were weighted. Data represent average values with standard deviation (at least three mice per group were included). In Panels A and B, tumor free and tumor bearing mice were included for the body weight measurement. Panels C, D and E: Intracranial growth of GL-261-Luc cells. […] Tumor size is expressed as radiance (photons/s/cm2/sr) and was quantified with the Living Image 4.1 software according to the manufacturer's recommendations (Xenogen). […]
Animal studies—All described procedures involving experimental animals were performed in accordance to the IACUC protocol #3444 at LSUHSC, New Orleans. […] The resulting images were evaluated and luminescence measurements from equivalent regions of interest encompassing the entire skull were collected using Living Image 4.1 software (Xenogen). […]

[3] = test system: LN-229 human glioblastoma cells; conditions: in vitro; cited from earlier work
[4] = test system: U-87MG human glioblastoma cell line; experiment: Cell death, trypan blue, U-87MG; conditions: 5-50 μM, 96 h
Experimental: (§1) The percentage of cell death was calculated at 96-hour time point for all experimental conditions.

[5] = test system: GBM12 patient-derived human glioblastoma cells; experiment: Cell death, trypan blue, GBM12; conditions: 5-50 μM, 96 h
Experimental: as §1

## CN(CCO)C(=O)C(C)(C)Oc1ccc(C(=O)c2ccc(Cl)cc2)cc1 [PP1, 2-[4-(4-chlorobenzoyl)phenoxy]-N-(2-hydroxyethyl)-N,2-dimethylpropanamide]
[1]
  extracellular acidification rate (ECAR): corresponding increases in ECAR
  oxygen consumption rate (OCR): dramatic decrease of OCR values
[2]
  necrosis within the tumor mass: multiple large areas of necrotic tissue within the tumor mass
[3]
  concentration at which highly effective tumor cell death occurs: 10 µM
[4]
  in vitro cytotoxicity: high in vitro cytotoxicity
[5]
  in vitro cytotoxicity: high in vitro cytotoxicity

— patent US20220304957A1, “ANTI-CANCER COMPOSITIONS AND METHODS OF USE” (Board of Supervisors of Louisiana State University and …, priority 2019, published 2022)
